No end group written: not given here. *: point of attachment. Biotin = O=C1N[C@H]2[C@H](CS[C@H]2CCCCC(=O)*)N1
Key:
CD147–β2AR complex = assay: BRET between CD147-Rluc and β2AR-YFP; type: cell-based, human; conditions: HEK293 cells
Description: HEK293 cells (2 × 10^5 per well of a 6-well plates) were transfected with 2 ng plasmid DNA coding for the BRET donor (CD147-Luc, CD147ΔD2-Luc) and increasing amounts of BRET acceptor plasmids (β2-YFP, CCR5-YFP; 0–400 ng per well). Twenty-four hours after transfection, cells were resuspended in Hank's balanced salt solution and distributed in 96-well plates (Perkin-Elmer plates; 10^5 cells per well). After addition of the luciferase substrate, coelenterazine h (5 μM final concentration), luminescence at 485 nm and fluorescence at 530 nm were measured simultaneously in a Mithras LB940 Plate Reader. The BRET ratio was calculated as: ((emission at 530 nm/emission at 485 nm)−(background at 530 nm/background at 485 nm)), where background corresponds to signals in cells expressing the Rluc fusion protein alone under the same experimental conditions. For better readability, results were expressed in milli-BRET units (mBRET), 1 mBRET corresponding to the BRET ratio multiplied by 1000. BRET ratios were plotted as a function of ([YFP-YFP0])/(Rluc), where YFP is the fluorescence signal at 530 nm after excitation at 485 nm, and Rluc the signal at 485 nm after addition of coelenterazine h. YFP0 and Rluc0 correspond to the same values in cells expressing the Rluc fusion protein alone. […]

cytosolic tail of CD147 = assay: Surface plasmon resonance, immobilized CD147 cytosolic peptide; type: binding; conditions: SPR, non-reducing buffer
Description: (§1) For SPR experiments, the fusion proteins GST-Actn4, GST alone or the GST-FERM domain of ezrin used as a control were diluted either in a non-reducing (PBS, 0.02% Tween-20) or a reducing (10 mM HEPES, 150 mM NaCl, 1 mM EDTA, 1 mM dithiothreitol, 0.005% Tween-20) running buffer. To control the impact of these buffers on the dimerization status of Actn4, Actn4-GST or GST alone as a control (final concentration 100 nM) were incubated for 30 min with 250 μM freshly prepared solution of bissulfosuccinimidyl suberate crosslinker, then separated on SDS–PAGE gels and transferred to nitrocellulose to analyse their electrophoretic migration by immunoblot. Interaction studies between α-Actn4 and CD147 were performed on a BIAcore T200 Instrument (BIAcore Life Sciences, GE Healthcare Europe). Streptavidin-coated sensor chips (Series S sensor chip SA; GE Healthcare) were used to capture a biotinylated peptide encoding the cytosolic sequence of CD147 (Biotin-[…]) or the juxta-membrane region of CD44 (Biotin-NSRRRCGQKKKLVINSG), purchased from Proteogenix, at a flow rate of 5 μl min^−1 in the non-reducing or the reducing running buffer. The density was controlled at an increased response level of 630 and 286 response units (RUs), for CD147 and CD44, respectively depending on molecular weight. […] Output sensorgrams were analysed using the BIAevaluation 4.1.1 Software.

[1] = molecular target: juxta-membrane cytosolic portion of CD44; assay: Surface plasmon resonance, immobilized CD44 juxta-membrane peptide; type: binding; conditions: SPR, non-reducing buffer, BIAcore T200, read-out: dissociation constant (Kd)
Description: as §1

[2] = molecular target: T1, recombinant glutathione-S-transferase (GST)–Actn4 fusion protein (human, UniProt O43707 1-911); assay: SPR; BIAcore T200, biotinylated peptides captured on streptavidin chip (630 RU CD147, 286 RU CD44), GST fusions as analytes, non-reducing buffer (PBS, 0.02% Tween-20), 25 μl/min, 60 s association, 60 s dissociation; conditions: both partners purified
T1 construct: also called Actn4-GST; source: recombinant, purified
T1 sequence (O43707 whole entry, the tested form may be a part): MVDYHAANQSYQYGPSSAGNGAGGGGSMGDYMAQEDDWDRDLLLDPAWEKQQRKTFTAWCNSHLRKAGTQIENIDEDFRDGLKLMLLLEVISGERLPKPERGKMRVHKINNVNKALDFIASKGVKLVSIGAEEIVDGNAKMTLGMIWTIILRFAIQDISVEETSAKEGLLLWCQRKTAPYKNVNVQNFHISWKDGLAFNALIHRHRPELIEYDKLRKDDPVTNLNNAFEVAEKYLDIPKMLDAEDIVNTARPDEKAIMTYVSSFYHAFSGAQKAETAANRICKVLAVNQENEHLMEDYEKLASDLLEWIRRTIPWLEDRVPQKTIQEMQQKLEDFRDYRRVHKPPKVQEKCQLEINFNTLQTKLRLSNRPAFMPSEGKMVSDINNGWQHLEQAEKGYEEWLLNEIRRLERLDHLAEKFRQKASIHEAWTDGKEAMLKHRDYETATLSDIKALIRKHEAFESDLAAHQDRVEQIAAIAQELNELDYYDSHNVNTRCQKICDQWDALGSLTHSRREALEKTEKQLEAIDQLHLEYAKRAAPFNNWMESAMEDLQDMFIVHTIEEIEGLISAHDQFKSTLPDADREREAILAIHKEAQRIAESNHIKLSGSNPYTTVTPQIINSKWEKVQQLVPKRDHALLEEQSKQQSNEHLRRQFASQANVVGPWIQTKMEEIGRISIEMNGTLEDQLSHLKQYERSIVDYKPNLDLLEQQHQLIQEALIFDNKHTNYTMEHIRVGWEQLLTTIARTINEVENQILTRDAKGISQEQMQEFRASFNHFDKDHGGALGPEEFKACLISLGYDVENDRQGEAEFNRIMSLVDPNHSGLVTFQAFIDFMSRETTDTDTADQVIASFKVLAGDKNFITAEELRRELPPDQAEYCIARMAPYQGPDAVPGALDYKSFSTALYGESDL

[3] = molecular target: T2, GST-coupled four-point-one, ezrin, radixin, moesin (FERM) domain of ezrin (human, UniProt P15311 2-296); assay: as above; conditions: both partners purified
T2 construct: also called GST-FERM domain of ezrin; ezrin FERM domain in fusion with GST
T2 sequence (P15311 2-296): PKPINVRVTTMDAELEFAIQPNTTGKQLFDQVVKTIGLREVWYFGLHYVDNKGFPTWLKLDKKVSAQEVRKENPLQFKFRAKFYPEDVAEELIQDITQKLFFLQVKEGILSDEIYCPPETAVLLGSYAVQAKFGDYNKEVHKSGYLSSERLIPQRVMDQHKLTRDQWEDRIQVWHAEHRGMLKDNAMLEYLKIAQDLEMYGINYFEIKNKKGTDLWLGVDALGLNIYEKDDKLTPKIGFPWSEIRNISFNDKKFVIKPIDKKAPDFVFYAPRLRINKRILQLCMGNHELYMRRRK

[4] = molecular target: T1, recombinant glutathione-S-transferase …; assay: SPR; BIAcore T200, biotinylated peptide captured on streptavidin chip, GST-Actn4 as analyte, reducing buffer (10 mM HEPES, 150 mM NaCl, 1 mM EDTA, 1 mM dithiothreitol, 0.005% Tween-20); apparent affinity; conditions: both partners purified

CC(C)NCC(O)c1ccc(O)c(O)c1 (centres unmarked) [isoproterenol]
BRET signal between CD147 and β2AR (CD147–β2AR complex; 2 ng CD147-Rluc, 20 ng β2AR-YFP, isoproterenol 10 μM, read every 2 min for 20 min, mean±s.e.m., n=3, representative of four experiments): reduced

CC(C)NCC(O)COc1cccc2ccccc12 (centres unmarked) [propranolol]
effect on isoproterenol-induced BRET reduction (CD147–β2AR complex; 10 μM isoproterenol in combination with 10 μM propranolol, 20 min): This effect was inhibited

GST-coupled four-point-one, ezrin, radixin, moesin (FERM) domain of ezrin: GST-FERM domain of ezrin used as a control
interaction with immobilized CD147 peptide (cytosolic tail of CD147): poorly interacted with the CD147 peptide
Kd [1]: 4.3 ± 0.1 nM

B1: biotinylated peptide of the juxta-membrane region of CD44 (peptide)
peptide: Biotin-NSRRRCGQKKKLVINSG
notes: also called cytosolic tail of CD44; juxta-membrane cytosolic portion of CD44; source: synthetic peptide, bought: ProteoGenix
Kd [2]: 159 ± 43 nM
Kd [3]: 4.3 ± 0.1 nM

B2: biotinylated peptide encoding the cytosolic sequence of CD147 (peptide)
peptide: Biotin-AYDKRRKPEDVLDDDDAGSAPLKSSGQHQNDKGKNVRQRNSS
notes: also called CD147-CT; CD147 peptide; source: synthetic peptide, bought: ProteoGenix
Kd [4]: 44600 ± 32500 nM
Kd [2]: 4 ± 0.01 nM

— PMC5461506, “Strength of Neisseria meningitidis binding to endothelial cells requires highly-ordered CD147/β2-adrenoceptor clusters assembled by alpha-actinin-4” (Nature Communications, 2017)
